T1: PIM1 (yeast Lon protease) (Saccharomyces cerevisiae, UniProt P36775)
T1 construct: 109 kDa; hexamer; residues 529-1133 resolved
T1 sequence (P36775 182-1133): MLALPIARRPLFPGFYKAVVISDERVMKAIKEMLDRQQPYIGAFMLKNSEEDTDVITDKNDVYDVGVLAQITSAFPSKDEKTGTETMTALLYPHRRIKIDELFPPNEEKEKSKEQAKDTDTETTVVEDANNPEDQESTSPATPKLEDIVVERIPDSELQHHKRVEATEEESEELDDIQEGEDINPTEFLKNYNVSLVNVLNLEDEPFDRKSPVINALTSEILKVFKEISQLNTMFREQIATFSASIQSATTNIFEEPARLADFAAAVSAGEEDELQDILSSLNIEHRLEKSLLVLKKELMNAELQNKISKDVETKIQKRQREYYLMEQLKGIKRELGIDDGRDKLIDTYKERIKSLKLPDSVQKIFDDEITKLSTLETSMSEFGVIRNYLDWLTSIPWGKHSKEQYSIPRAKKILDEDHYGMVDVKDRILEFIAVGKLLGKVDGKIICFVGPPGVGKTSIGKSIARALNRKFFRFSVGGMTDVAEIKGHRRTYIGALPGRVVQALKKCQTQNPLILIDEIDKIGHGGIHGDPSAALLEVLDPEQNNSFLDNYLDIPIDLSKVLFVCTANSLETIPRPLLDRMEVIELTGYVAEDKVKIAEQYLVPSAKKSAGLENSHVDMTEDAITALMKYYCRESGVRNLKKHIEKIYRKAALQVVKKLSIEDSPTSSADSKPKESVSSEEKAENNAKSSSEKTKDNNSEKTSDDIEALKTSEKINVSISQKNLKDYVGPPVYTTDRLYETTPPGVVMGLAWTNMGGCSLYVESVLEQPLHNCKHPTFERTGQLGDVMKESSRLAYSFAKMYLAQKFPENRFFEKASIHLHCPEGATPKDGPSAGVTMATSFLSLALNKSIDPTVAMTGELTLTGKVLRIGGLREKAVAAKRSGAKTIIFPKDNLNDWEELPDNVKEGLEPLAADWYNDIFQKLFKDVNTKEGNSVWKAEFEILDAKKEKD

B1: mature WT S. cerevisiae PIM1 lacking the mitochondrial targeting sequence (yeast Lon protease) (enzyme, UniProt P36775 182-1133, looked up)
chain: T1 sequence (P36775 182-1133)
notes: residues 529-1133 modelled in the structure; also called WT PIM1; source: E. coli BL21 (DE3) Codon Plus RIPL, purified (Ni-NTA, Superose 6 SEC)

Legend:
[1] = biological target: T1, PIM1 (yeast Lon protease); assay: cryo-EM structure ([…] Å); type: binding; settings: two seam subunits (ADP1-2) without gamma-phosphate density; no ADP added, 1 mM ATPγS in sample
[2] = biological target: the molecule itself; assay: cryo-EM structure; WT PIM1 (3 mg/ml) after size-exclusion chromatography, incubated with 1 mM ATPγS on ice for 20 min, plunge-frozen; reconstruction at ~3.2 Å

| Molecule | cryo-EM structure (3.2 Å) [1] | stoichiometry N [2] |
| --- | --- | --- |
| Nc1ncnc2c1ncn2[C@@H]1O[C@H](COP(=O)(O)OP(=O)(O)O)[C@@H](O)[C@H]1O [ADP] | do not contain density for a γ-phosphate and are named ADP1 and ADP2 | – |
| B1 | – | 6 |
